Activity calls are given as the source filed them. The calls are words filed in the database; no cut-off is given here.
Columns and labels:
BV-2 [1] = assay: Antineuroinflammatory activity in LPS-induced mouse BV-2 cells assessed as inhibition of ROS production preincubated for 30 mins followed by LPS stimulation and measured after 8 hrs by DCFH-DA staining based analysis; type: functional, cell-based; conditions: dose 2.5-10 µM, time 8.5 hrs
Mus musculus [2] = assay: Neuroprotective activity in Sodium nitrite induced cognition impairement in C57BL/6 mouse model assessed as decrease in MAD activity at 5.0 mg/kg, IG administered daily for 7 days; type: functional, organism-based; conditions: time 7.0 day
HT-22 [3] = assay: Neuroprotective activity against amyloid beta (1 to 42)-induced injury in mouse HT-22 cells assessed as inhibition of ROS accumulation measured after 24 hrs by DCFH-DA staining based fluorescence microscopy analysis; type: functional, cell-based; conditions: dose 2.5-10 µM
[4] = Ratio of AUC (0 to t) in Balb/C mouse brain at 30 mg/kg, IG measured upto 8 hrs by LC-MS analysis; type: ADME, organism-based; conditions: po
Mus musculus [5] = assay: Neuroprotective activity in C57BL/6 mouse assessed as amelioration of sodium nitrite induced memory impairement at 1.1 to 9.9 mg/kg, IG administered daily for 7 days; type: functional, organism-based; conditions: dose 1.1-9.9 mg/kg, time 7.0 day
[6] = target: Amyloid-beta precursor protein (Homo sapiens) (UniProt P05067); assay: Inhibition of amyloid beta (1 to 42) (unknown origin) fibrillation assessed as short amyloid beta fibrils at 25 uM measured after 24 hrs by TEM analysis
Amyloid-beta precursor protein (Homo sapiens), sequence (P05067 whole entry): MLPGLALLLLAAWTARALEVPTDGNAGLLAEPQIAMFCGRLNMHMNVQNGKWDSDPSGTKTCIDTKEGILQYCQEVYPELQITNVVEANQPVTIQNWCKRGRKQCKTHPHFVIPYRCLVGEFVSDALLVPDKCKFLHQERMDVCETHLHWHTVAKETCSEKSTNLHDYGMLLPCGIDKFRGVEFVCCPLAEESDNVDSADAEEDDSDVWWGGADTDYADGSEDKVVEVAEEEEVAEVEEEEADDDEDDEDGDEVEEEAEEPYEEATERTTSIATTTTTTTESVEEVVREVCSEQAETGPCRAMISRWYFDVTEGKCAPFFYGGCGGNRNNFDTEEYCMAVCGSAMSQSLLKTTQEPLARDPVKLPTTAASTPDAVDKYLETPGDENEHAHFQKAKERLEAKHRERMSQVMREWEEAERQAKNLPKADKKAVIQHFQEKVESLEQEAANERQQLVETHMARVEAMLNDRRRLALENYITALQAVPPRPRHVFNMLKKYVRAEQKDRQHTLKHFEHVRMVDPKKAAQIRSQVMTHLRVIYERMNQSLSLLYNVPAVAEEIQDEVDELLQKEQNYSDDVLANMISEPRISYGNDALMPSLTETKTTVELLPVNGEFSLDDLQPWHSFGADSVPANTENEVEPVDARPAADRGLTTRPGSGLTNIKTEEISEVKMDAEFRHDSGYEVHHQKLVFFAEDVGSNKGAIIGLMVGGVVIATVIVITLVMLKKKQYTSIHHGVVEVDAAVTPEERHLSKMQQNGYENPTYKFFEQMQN

BV-2 [7] = assay: Antineuroinflammatory activity in LPS-induced mouse BV-2 cells assessed as inhibition of NO release at 0.5 uM preincubated for 30 mins followed by LPS stimulation and measured after 24 hrs relative to control; type: functional; parameters: scale not given: the % may be the effect or the level left; conditions: time 24.5 hrs
Mus musculus [8] = assay: Neuroprotective activity in Sodium nitrite induced cognition impairement in C57BL/6 mouse model assessed as reduction in number of error time at 1.1 to 9.9 mg/kg, IG administered daily for 7 days; type: functional, organism-based; conditions: dose 1.1-9.9 mg/kg, time 7.0 day
HT-22 [9] = assay: Neuroprotective activity against amyloid beta (1 to 42)-induced cell injury in mouse HT-22 cells assessed as reversal of reduction in cell numbers at 2.5 to 10 uM measured after 24 hrs by MTT assay; type: functional, cell-based; conditions: dose 2.5-10 µM
[10] = Metal chelating activity assessed as compound-Fe2+ complex formation by measuring hyperchromic shift in the presence of FeSO4 by UV-Visible spectrophotometric analysis
[11] = Metal chelating activity assessed as compound-Fe2+ complex formation by measuring bathochromic shift at 301 to 335nm in the presence of FeSO4 by UV-Visible spectrophotometric analysis
PC-12 [12] = assay: Neuroprotective activity against H2O2 induced rat PC12 cells assessed as increase in cell viability at 10 uM measured after 24 hrs by MTT assay relative to control; type: functional
BV-2 [13] = assay: Antineuroinflammatory activity in LPS-induced mouse BV-2 cells assessed as inhibition of ROS production at 10 uM preincubated for 30 mins followed by LPS stimulation and measured after 8 hrs by DCFH-DA staining based analysis; type: functional, cell-based; conditions: time 8.5 hrs
[14] = Half life in Balb/C mouse brain at 30 mg/kg, IG measured upto 8 hrs by LC-MS analysis; type: ADME, organism-based; conditions: po
Mus musculus [15] = assay: Neuroprotective activity in Sodium nitrite induced cognition impairement in C57BL/6 mouse model assessed as increase in SOD activity administered daily as IG for 7 days; type: functional, organism-based; conditions: dose 1.1-9.9 mg/kg, time 7.0 day
HT-22 [16] = assay: Neuroprotective activity against amyloid beta (1 to 42)-induced injury in mouse HT-22 cells assessed as increase in cell viability at 10 uM incubated for 24 hrs by MTT assay relative to control; type: functional
BV-2 [17] = assay: Antineuroinflammatory activity in LPS-induced mouse BV-2 cells assessed as inhibition of IL-1 beta release at 10 uM preincubated for 30 mins followed by LPS stimulation and measured after 24 hrs relative to control; type: functional; parameters: scale not given: the % may be the effect or the level left; conditions: time 24.5 hrs
PC-12 [18] = assay: Neuroprotective activity against H2O2 induced rat PC12 cells assessed as increase in cell viability at 25 uM measured after 24 hrs by MTT assay relative to control; type: functional
Mus musculus [19] = assay: Neuroprotective activity against Abeta42 induced cognition impairement in AD mouse model assessed as improvement in latency time at 1.1 to 9.9 mg/kg, IG administered daily for 7 days by passive avoidance test; type: functional, organism-based; conditions: dose 1.1-9.9 mg/kg, time 7.0 day
[20] = target: Amyloid-beta precursor protein (Homo sapiens) (UniProt P05067); assay: Inhibition of Cu2+ induced amyloid beta (1 to 42)(unknown origin) fibrillation at 25 uM by ThT fluorescence assay relative to control
Mus musculus [21] = assay: Neuroprotective activity in Sodium nitrite induced cognition impairement in C57BL/6 mouse model assessed as improvement in step-down latency time at 1.1 to 9.9 mg/kg, IG administered daily for 7 days; type: functional, organism-based; conditions: dose 1.1-9.9 mg/kg, time 7.0 day
[22] = Tmax in Balb/C mouse brain at 30 mg/kg, IG measured upto 8 hrs by LC-MS analysis; type: ADME, organism-based; conditions: po
[23] = target: Amyloid-beta precursor protein (Homo sapiens) (UniProt P05067); assay: Inhibition of amyloid beta (1 to 42) (unknown origin) fibrillation assessed as decrease in thickness of amyloid beta fibrils at 25 uM measured after 24 hrs by TEM analysis
BV-2 [24] = assay: Antineuroinflammatory activity in LPS-induced mouse BV-2 cells assessed as inhibition of TNF-alpha release at 0.5 uM preincubated for 30 mins followed by LPS stimulation and measured after 24 hrs relative to control; type: functional; parameters: scale not given: the % may be the effect or the level left; conditions: time 24.5 hrs
BV-2 [25] = assay: Antineuroinflammatory activity in LPS-induced mouse BV-2 cells assessed as inhibition of TNF-alpha release preincubated for 30 mins followed by LPS stimulation and measured after 24 hrs; type: functional, cell-based; conditions: dose 0.5-10 µM, time 24.5 hrs
BV-2 [26] = assay: Cytotoxicity against mouse BV-2 cells at upto 10 uM measured after 24 hrs by MTT assay; type: toxicity, cell-based; conditions: bv-2, 24 h
[27] = Metal chelating activity assessed as compound-Cu2+ complex formation by measuring hyperchromic shift in the presence of CuCl2 by UV-Visible spectrophotometric analysis
[28] = Antioxidant activity assessed as inhibition of Cu2+-induced ROS production by measuring decrease in fluorescence intensity in presence of Cu2+ and ascorbate; type: functional
BV-2 [29] = assay: Antineuroinflammatory activity in LPS-induced mouse BV-2 cells assessed as inhibition of TNF-alpha release at 10 uM preincubated for 30 mins followed by LPS stimulation and measured after 24 hrs relative to control; type: functional; parameters: scale not given: the % may be the effect or the level left; conditions: time 24.5 hrs
[30] = target: Amyloid-beta precursor protein (Homo sapiens) (UniProt P05067); assay: Inhibition of amyloid beta (1 to 42) (unknown origin) fibrillation assessed as reduction in Cu2+ induced thick fibrils at 25 uM measured after 24 hrs by TEM analysis
[31] = Half life in Balb/C mouse plasma at 30 mg/kg, IG measured upto 8 hrs by LC-MS analysis; type: ADME, organism-based; conditions: po
BV-2 [32] = assay: Antineuroinflammatory activity in LPS-induced mouse BV-2 cells assessed as inhibition of TNF-alpha release at 2.5 uM preincubated for 30 mins followed by LPS stimulation and measured after 24 hrs relative to control; type: functional; parameters: scale not given: the % may be the effect or the level left; conditions: time 24.5 hrs
Mus musculus [33] = assay: Neuroprotective activity in Sodium nitrite induced cognition impairement in C57BL/6 mouse model assessed as increase in SOD activity at 5.0 mg/kg, IG administered daily for 7 days; type: functional, organism-based; conditions: time 7.0 day
Mus musculus [34] = assay: Neuroprotective activity against Abeta42 induced cognition impairement in AD mouse model assessed as alleviation of learning deficit administered daily as IG for 7 days by passive avoidance test; type: functional, organism-based; conditions: time 7.0 day
[35] = Tmax in Balb/C mouse plasma at 30 mg/kg, IG measured upto 8 hrs by LC-MS analysis; type: ADME, organism-based; conditions: po
[36] = Metal chelating activity assessed as compound-Zn2+ complex formation by measuring hyperchromic shift in the presence of ZnCl2 by UV-Visible spectrophotometric analysis

Kp at 8 h [4]: 0.8 | inhibition [6]: Active | Activity [10]: Active | Activity [11]: Active | half-life [14]: 58.2 min | inhibition [20]: 35.4% | Tmax [22]: 30 min | inhibition [23]: Active | Activity [27]: Active | inhibition [30]: Active | half-life [31]: 51 min | Tmax [35]: 15 min | Activity [36]: Active
SMILES: CCCCCC1OC(=O)c2c1cc(OC)c(O)c2O (stereo unspecified)
Activity (BV-2 [1]): Dose-Dependent Effect | Activity (Mus musculus [2]): inactive | Activity (HT-22 [3]): Dose-Dependent Effect | Activity (Mus musculus [5]): Active | Activity (BV-2 [7]): 31.1% | Activity (Mus musculus [8]): Active | Activity (HT-22 [9]): Active | Activity (PC-12 [12]): 80.7% | Activity (BV-2 [13]): Active | Activity (Mus musculus [15]): Dose-Dependent Effect | Activity (HT-22 [16]): 89.2% | Activity (BV-2 [17]): 62.9% | Activity (PC-12 [18]): 83.9% | Activity (Mus musculus [19]): Active | Activity (Mus musculus [21]): Active | Activity (BV-2 [24]): 20% | Activity (BV-2 [25]): Dose-Dependent Effect | Activity (BV-2 [26]): Non-Toxic | Activity [28]: Active | Activity (BV-2 [29]): 75.8% | Activity (BV-2 [32]): 40.1% | Activity (Mus musculus [33]): inactive | Activity (Mus musculus [34]): Dose-Dependent Effect

— ChEMBL document CHEMBL5505960, “Synthesis and evaluation of butylphthalide-scutellarein hybrids as multifunctional agents for the treatment of Alzheimer's disease” (Eur J Med Chem, 2024)
